This is an account of results in patent US20100209537A1, “Metal complexes with anticancer activity” (priority 2009, published 2010).

Data set [1] is described as follows: Solubility in water and organic solvents. Type of data set: physicochemical.
Data set [2] can be described thus: Stability at room temperature. The format is physicochemical.
Data set [3] concerns ovarian cancer cell line A2780. Kind of data set: MTT assay, ovarian cancer cell line A2780. The format is cell-based, human. The following applies: n = 3, A2780. The method, then: MTT [3-(4,5-dimethylthiazol-2yl)-2,5-diphenyltetrazolium bromide] method:
MTT is used to measure the metabolic activity of viable cells. The assay is non-radioactive and can be performed entirely in a micro titer plate (MTP). It is suitable for measuring cell proliferation, cell viability or cytotoxicity. The reaction produces water-insoluble formazan salt that must be solubilized. Procedure involves culturing the cells in a 96-well micro titer plate, and then incubating them with MTT solution for approximately 2 hours. During incubation period, viable cells convert MTT to a water-insoluble formazan dye. The formazan dye in the MTP is solubilized and quantified with an ELISA plate reader. The absorbance directly correlates with the cell number. This can be applicable for adherent cells cultured in MTP.
Compounds were tested at concentrations of 3 and 30 μg/ml by MTT assay using the ovarian cancer cell line A2780.
In general terms: Tetrazolium dyes change colour on reduction, which living cells bring about.

Turning to `Oc1ccc2ccccc2c1C=NNc1nc2ccccc2nc1Cl` [RM7, 2-hydroxy-1-naphthaldehyde-1-(3-chloro-2-quinoxalinyl)hydrazone], in data set [1], the “solubility in dimethylformamide and dimethylsulphoxide” value is recorded as “fairly soluble”; the “solubility in methanol and acetone” value is “very slightly soluble”; the solubility in water result is listed as “insoluble”. Further, the “stability at room temperature” value in data set [2] is “stable”. The “Percent surviving cells of DMSO control (Mean)” value (shortened to “Percent surviving cells”) in data set [3] (3 μg/ml) amounted to 6.6%. In addition, the “Percent surviving cells” value in data set [3] (30 μg/ml) amounted to 0.9%.
On to `Oc1ccccc1C=NNc1nc2ccccc2nc1Cl` [RM2, 2-hydroxybenzaldehyde-1-(3-chloro-2-quinoxalinyl) hydrazone], for which, in data set [1], the “solubility in dimethylformamide and dimethylsulphoxide” value is given as “fairly soluble”; the “solubility in methanol and acetone” value is “very slightly soluble”; the solubility in water result is recorded as “insoluble”. Further, the “stability at room temperature” value in data set [2] is listed as “stable”. Moreover, the “Percent surviving cells” value in data set [3] (3 μg/ml) is 0.4%. In addition, the “Percent surviving cells” value in data set [3] (30 μg/ml) amounted to 0.4%.
Turning to `Clc1nc2ccccc2nc1NN=Cc1ccccn1` [RM10, 2-pyridinecarbaldehyde-2-(3-chloro-2-quinoxalinyl)hydrazone], in data set [1], the “solubility in dimethylformamide and dimethylsulphoxide” value is reported as “fairly soluble”; the “solubility in methanol and acetone” value was “very slightly soluble”; the solubility in water entry is listed as “insoluble”. The “stability at room temperature” value in data set [2] was “stable”. The “Percent surviving cells” value in data set [3] (3 μg/ml) was found to be 4.6%. The “Percent surviving cells” value in data set [3] (30 μg/ml) was found to be 1%.
On to `Oc1ccc2ccccc2c1C=NNc1nc2ccccc2nc1Cl` [RM8, 2-hydroxy-1-naphthaldehyde-1-(3-chloro-2-quinoxalinyl)hydrazone], for which, in data set [1], the “solubility in dimethylformamide and dimethylsulphoxide” value is “fairly soluble”; the “solubility in methanol and acetone” value is reported as “very slightly soluble”; the solubility in water result was “insoluble”. The “stability at room temperature” value in data set [2] is recorded as “stable”. Moreover, in data set [3] (3 μg/ml), the “Percent surviving cells” value was found to be 0.3%. Moreover, in data set [3] (30 μg/ml), the “Percent surviving cells” value came out at 0.1%.
`Clc1nc2ccccc2nc1NN=Cc1ccccn1` [RM11, 2-pyridinecarbaldehyde-2-(3-chloro-2-quinoxalinyl)hydrazone]: in data set [1], the “solubility in dimethylformamide and dimethylsulphoxide” value is on record as “fairly soluble”; the “solubility in methanol and acetone” value is recorded as “very slightly soluble”; the solubility in water result is on record as “insoluble”. Also, the “stability at room temperature” value in data set [2] was “stable”. Moreover, the “Percent surviving cells” value in data set [3] (3 μg/ml) was 0.4%. Also, in data set [3] (30 μg/ml), the “Percent surviving cells” value came out at 0.7%.
As for `COc1cccc(C=NNc2nc3ccccc3nc2Cl)c1O` [RM5, 2-Hydroxy-3-methoxybenzaldehyde-1-(3-chloro-2-quinoxalinyl)-hydrazone], in data set [1], the “solubility in dimethylformamide and dimethylsulphoxide” value was “fairly soluble”; the “solubility in methanol and acetone” value is “very slightly soluble”; the solubility in water result is recorded as “insoluble”. The “stability at room temperature” value in data set [2] is reported as “stable”. Moreover, the “Percent surviving cells” value in data set [3] (3 μg/ml) is given as 0.6%. The “Percent surviving cells” value in data set [3] (30 μg/ml) stood at 0.2%.
Turning to `Clc1nc2ccccc2nc1NN=Cc1ccco1` [RM14, 2-furaldehyde-2-(3-chloro-2-quinoxalinyl)hydrazone], in data set [1], the “solubility in dimethylformamide and dimethylsulphoxide” value is on record as “fairly soluble”; the “solubility in methanol and acetone” value is on record as “very slightly soluble”; the solubility in water result was “insoluble”. Also, the “stability at room temperature” value in data set [2] is given as “stable”. Moreover, the “Percent surviving cells” value in data set [3] (3 μg/ml) amounted to 13.2%. The “Percent surviving cells” value in data set [3] (30 μg/ml) was 0.7%.
